SMILES strings stand for the structures. The source made the active and inactive calls. The rule behind the calls is not given here.

The series relates to CCRIS mutagenicity, Ames/micronucleus/aberration tests. The series is described as follows: CCRIS mutagenicity studies.
The mark [1] stands for this setting: Test System: AMES SALMONELLA TYPHIMURIUM, Strain/Indicator: TA100, Metabolic Activation: S-9, Method: STANDARD PLATE.
Setting [2] is: Test System: AMES SALMONELLA TYPHIMURIUM, Strain/Indicator: TA98, Metabolic Activation: HAMSTER, LIVER, S-9, AROCLOR 1254 (10%), Method: PREINCUBATION
Setting [3] is: Test System: AMES SALMONELLA TYPHIMURIUM, Strain/Indicator: TA98, Metabolic Activation: NONE, Method: PREINCUBATION
Where [4] appears, read: Test System: AMES SALMONELLA TYPHIMURIUM, Strain/Indicator: TA98, Metabolic Activation: NONE, Method: STANDARD PLATE.
Setting [5] is: Test System: AMES SALMONELLA TYPHIMURIUM, Strain/Indicator: TA98, Metabolic Activation: RAT, LIVER, S-9, AROCLOR 1254 (10%), Method: PREINCUBATION
The mark [6] stands for this setting: Test System: AMES SALMONELLA TYPHIMURIUM, Strain/Indicator: TA100, Metabolic Activation: HAMSTER, LIVER, S-9, AROCLOR 1254 (10%), Method: PREINCUBATION
The mark [7] stands for this setting: Test System: AMES SALMONELLA TYPHIMURIUM, Strain/Indicator: TA100, Metabolic Activation: NONE, Method: PREINCUBATION
Setting [8] is: Test System: AMES SALMONELLA TYPHIMURIUM, Strain/Indicator: TA100, Metabolic Activation: RAT, LIVER, S-9, AROCLOR 1254 (10%), Method: PREINCUBATION
Where [9] appears, read: Test System: AMES SALMONELLA TYPHIMURIUM, Strain/Indicator: TA1535, Metabolic Activation: HAMSTER, LIVER, S-9, AROCLOR 1254 (10%), Method: PREINCUBATION
[10] abbreviates: Test System: AMES SALMONELLA TYPHIMURIUM, Strain/Indicator: TA1535, Metabolic Activation: NONE, Method: PREINCUBATION
[11] abbreviates: Test System: AMES SALMONELLA TYPHIMURIUM, Strain/Indicator: TA1535, Metabolic Activation: RAT, LIVER, S-9, AROCLOR 1254 (10%), Method: PREINCUBATION
The mark [12] stands for this setting: Test System: AMES SALMONELLA TYPHIMURIUM, Strain/Indicator: TA1537, Metabolic Activation: HAMSTER, LIVER, S-9, AROCLOR 1254 (10%), Method: PREINCUBATION
[13] abbreviates: Test System: AMES SALMONELLA TYPHIMURIUM, Strain/Indicator: TA1537, Metabolic Activation: NONE, Method: PREINCUBATION
Where [14] appears, read: Test System: AMES SALMONELLA TYPHIMURIUM, Strain/Indicator: TA1537, Metabolic Activation: RAT, LIVER, S-9, AROCLOR 1254 (10%), Method: PREINCUBATION

`COc1ccc(Cc2nccc3cc(OC)c(OC)cc23)cc1OC`: the mutagenic call (Test System: AMES SALMONELLA TYPHIMURIUM, Strain/Indicator: TA100, Metabolic Activation: RAT, LIVER, S-9, PHENOBARBITAL AND BETA-NAPHTHOFLAVONE, Method: PREINCUBATION) was “active; positive”.
With `c1cc2sncc2cc1OCC1CO1` (configuration not stated), under setting [1], the mutagenic call was “active; positive”.
Turning to `Nc1ccc([N+](=O)[O-])cc1O`, the mutagenic call was “active; positive; precipitation occurred at 100.5 and 149.9 ug/ml” (End Point: IN VITRO CHROMOSOMAL ABERRATIONS, Test System: CHO CELLS, Metabolic Activation: NONE); “active; positive; precipitation occurred at both doses” (End Point: IN VITRO CHROMOSOMAL ABERRATIONS, Test System: CHO CELLS, Metabolic Activation: RAT, LIVER, S-9, AROCLOR 1254); “active; positive” under setting [2]; “active; positive” (Test System: AMES SALMONELLA TYPHIMURIUM, Strain/Indicator: TA98, Metabolic Activation: HAMSTER, LIVER, S-9, AROCLOR 1254, Method: PREINCUBATION); “active; positive” (Test System: AMES SALMONELLA TYPHIMURIUM, Strain/Indicator: TA98, Metabolic Activation: NONE, Method: FLUCTUATION (MICROTITER)); “active; positive” under setting [3]. The mutagenic call was “active; positive” under setting [4]; “active; positive” under setting [5]; “active; positive” (Test System: AMES SALMONELLA TYPHIMURIUM, Strain/Indicator: TA98, Metabolic Activation: RAT, LIVER, S-9, AROCLOR 1254, Method: PREINCUBATION); “inactive; negative” (Test System: AMES SALMONELLA TYPHIMURIUM, Strain/Indicator: TA98, Metabolic Activation: RAT, LIVER, S-9, AROCLOR 1254, Method: STANDARD PLATE); “inactive; negative” under setting [6]; “inactive; negative” under setting [7]. Also, the mutagenic call reads like this: under setting [8], “inactive; negative”; under setting [9], “inactive; negative”; (Test System: AMES SALMONELLA TYPHIMURIUM, Strain/Indicator: TA1535, Metabolic Activation: HAMSTER, LIVER, S-9, AROCLOR 1254, Method: PREINCUBATION) “inactive; negative”; under setting [10], “inactive; negative”; under setting [11], “inactive; negative”; (Test System: AMES SALMONELLA TYPHIMURIUM, Strain/Indicator: TA1535, Metabolic Activation: RAT, LIVER, S-9, AROCLOR 1254, Method: PREINCUBATION) “inactive; negative”. Moreover, the mutagenic call by setting is: under setting [12], “active; positive”; (Test System: AMES SALMONELLA TYPHIMURIUM, Strain/Indicator: TA1537, Metabolic Activation: HAMSTER, LIVER, S-9, AROCLOR 1254, Method: PREINCUBATION) “active; positive”; (Test System: AMES SALMONELLA TYPHIMURIUM, Strain/Indicator: TA1537, Metabolic Activation: NONE, Method: FLUCTUATION (MICROTITER)) “inactive; negative”; under setting [13], “active; positive”; under setting [14], “active; positive”; (Test System: AMES SALMONELLA TYPHIMURIUM, Strain/Indicator: TA1537, Metabolic Activation: RAT, LIVER, S-9, AROCLOR 1254, Method: PREINCUBATION) “active; positive”. Besides, the mutagenic call reads like this: (Test System: AMES SALMONELLA TYPHIMURIUM, Strain/Indicator: TA7001, Metabolic Activation: NONE, Method: FLUCTUATION (MICROTITER)) “inactive; negative”; (Test System: AMES SALMONELLA TYPHIMURIUM, Strain/Indicator: TA7002, Metabolic Activation: NONE, Method: FLUCTUATION (MICROTITER)) “inactive; negative”; (Test System: AMES SALMONELLA TYPHIMURIUM, Strain/Indicator: TA7003, Metabolic Activation: NONE, Method: FLUCTUATION (MICROTITER)) “inactive; negative”; (Test System: AMES SALMONELLA TYPHIMURIUM, Strain/Indicator: TA7004, Metabolic Activation: NONE, Method: FLUCTUATION (MICROTITER)) “inactive; negative”; (Test System: AMES SALMONELLA TYPHIMURIUM, Strain/Indicator: TA7005, Metabolic Activation: NONE, Method: FLUCTUATION (MICROTITER)) “inactive; negative”; (Test System: AMES SALMONELLA TYPHIMURIUM, Strain/Indicator: TA7006, Metabolic Activation: NONE, Method: FLUCTUATION (MICROTITER)) “inactive; negative”. The mutagenic call (Test System: MOUSE LYMPHOMA, Strain/Indicator: L5178Y (TK+/TK-), Metabolic Activation: NONE, Method: SUSPENSION/PLATE) was “active; positive”.
For the molecule `CC(C)(C)c1cc(-c2ccccc2)ccc1[N+](=O)[O-]`, the mutagenic call is “inactive; negative” under setting [4]; “inactive; negative” (Test System: AMES SALMONELLA TYPHIMURIUM, Strain/Indicator: TA98, Metabolic Activation: S-9, Method: STANDARD PLATE); “inactive; negative” (Test System: AMES SALMONELLA TYPHIMURIUM, Strain/Indicator: TA100, Metabolic Activation: NONE, Method: STANDARD PLATE); “inactive; negative” under setting [1].
For the molecule `O=C1NC(=O)c2cc([N+](=O)[O-])ccc21`, the mutagenic call was “inactive; negative” (Test System: AMES SALMONELLA TYPHIMURIUM, Strain/Indicator: TA97, Metabolic Activation: HAMSTER, LIVER, S-9, AROCLOR 1254 (10%), Method: PREINCUBATION); “active; positive” (Test System: AMES SALMONELLA TYPHIMURIUM, Strain/Indicator: TA97, Metabolic Activation: NONE, Method: PREINCUBATION); “inactive; negative” (Test System: AMES SALMONELLA TYPHIMURIUM, Strain/Indicator: TA97, Metabolic Activation: RAT, LIVER, S-9, AROCLOR 1254 (10%), Method: PREINCUBATION); “active; positive” under setting [2]; “active; positive” under setting [3]; “active; positive” under setting [5]. For the same molecule, the mutagenic call is, setting by setting: under setting [6], “inactive; negative”; under setting [7], “inactive; negative”; under setting [8], “inactive; negative”; under setting [9], “inactive; negative”; under setting [10], “inactive; negative”; under setting [11], “inactive; negative”. Moreover, the mutagenic call runs as follows: under setting [12], “active; positive”; under setting [13], “active; positive”; under setting [14], “active; positive”.

The record behind these values is PubChem BioAssay AID1259407 (Chemical Carcinogenesis Research Information System (CCRIS), 2018).
